Patent publication US10300070B2, “Metabolically-activated drug conjugates to overcome resistance in cancer therapy” (The Brigham and Women's Hospital, Inc., priority 2014, dated 2019)

B1: IL-23: recombinant cytokine purchased from Biolegend (protein, UniProt Q9NPF7 20-189; P29460 23-328, looked up)
Interleukin-23 subunit alpha: RAVPGGSSPAWTQCQQLSQKLCTLAWSAHPLVGHMDLREEGDEETTNDVPHIQCGDGCDPQGLRDNSQFCLQRIHQGLIFYEKLLGSDIFTGEPSLLPDSPVGQLHASLLGLSQLLQPEGHHWETQQIPSLSPSQPWQRLLLRFKILRSLQAFVAVAARVFAHGAATLSP
Interleukin-12 subunit beta: IWELKKDVYVVELDWYPDAPGEMVVLTCDTPEEDGITWTLDQSSEVLGSGKTLTIQVKEFGDAGQYTCHKGGEVLSHSLLLLHKKEDGIWSTDILKDQKEPKNKTFLRCEAKNYSGRFTCWWLTTISTDLTFSVKSSRGSSDPQGVTCGAATLSAERVRGDNKEYEYSVECQEDSACPAAEESLPIEVMVDAVHKLKYENYTSSFFIRDIIKPDPPKNLQLKPLKNSRQVEVSWEYPDTWSTPHSYFSLTFCVQVQGKSKREKKDRVFTDKTSATVICRKNASISVRAQDRYYSSSWSEWASVPCS

Tests used:
Type in all cases: cell-based
[1] = system: MDA-MB-231 parent or DTC; test: Glucose uptake (2-NBDG) determined by FACS; settings: for suppression of glucose consumption (2-NBDG uptake): incubation 3 h, DTC compared to drug naïve parent cells; for 2-NBDG uptake after exogenously-added cytokines: MDA-MB-231 parent cells, 24 hours incubation, 50 ng/ml
Experimental: (§1) MDA-MB-231 (ATCC), MDA-MB-468 and 4T-1 mammary carcinoma cells (ATCC) were cultured in DMEM containing 10% Fetal Bovine Serum (FBS) at 37 C and 5% CO2. DU145 and DU145-TxR were provided by A. Mizokami^63 and cultured in DMEM containing 10% FBS, resistant line included 100 nM paclitaxel in the culture media. During treatments with chemotherapeutics, cells were grown to semi-confluence and treated with indicated concentrations of chemotherapy in serum-containing medium for indicated time points. When small molecule inhibitors were included in treatments, they were added simultaneously with chemotherapy. For siRNA gene knockdown, cells were transfected with silencer-select siRNA plasmids (Ambion, Invitrogen, Grand Island, N.Y.) pan-CD44(1) (s2682) panCD44(2) (s2681), siHIF1A (s6539) using lipofectamine 2000 (Invitrogen, Carlsbad Calif.) following manufacturer protocol and cultured for 72 hours prior to treatment. Scrambled siRNA was used as a control. For chemotherapy treatment experiments: Cancer cells were plated at a density of 0.5-1×10^5 cells/ml and allowed to adhere for 24-48 hr. When cells reached ˜70% confluency they were treated with cytotoxics at indicated concentrations for 24-48 hours and utilized for subsequent assays. For experiments in which a shorter incubation was used (i.e. 15 min-4 hours) fresh media was added 24 hours prior to addition of chemotherapy suspended to stock concentration in PBS. For generation of DTC: Cells were treated for 48 hours with chemotherapy. Following washes with PBS, adherent cells were trypsinized and re-plated at a density of 1.5-2×10^5 cells/ml and cultured in serum-containing medium. After 24 hours incubation, floating cells were removed and remaining cells were washed with 1× PBS and considered as chemotherapy-tolerant cells. A population of drug naïve parent cells were always cultured alongside DTC and fresh media was added at every interval that experimental population (DTC) received fresh media.
In vitro detection of glucose uptake was performed using 2-(N-7-Nitrobenz-2-oxa-1,3-diazol-4-yl)Amino)-2-Deoxyglucose (2-NBDG) (Invitrogen, Carlsbad Calif.), dissolved in DMSO to 50 mM. Cells were pre-treated with kinase inhibitors or vehicle for 3 hours in glucose- and phenol red-free media before addition of 50 μM 2-NBDG and subsequently read by FACS ex/em 488/535 nm. ROS was determined by pre-loading cells with CM-DCFDA (1 μM), washed 2 times with PBS and subsequently treated with H2O2 or vehicle; when kinase inhibitors were included in treatment, cells were first incubated with inhibitor for 3 hours prior to CM-DCFDA loading. Fluorescence was then determined by FACS ex/em 488/535 nm. For the following assays, cells were trypsinized and counted by Nexcelom cell counter (Lawrence, Mass.) prior to being subjected to analysis in order to achieve a quantitative value per cell: Reduced glutathione was determined using a colorimetric glutathione recycling system by DTNB following manufacturer protocol (Biovision, Milpitas Calif.). ATP analysis was performed using the ATP colorimetric analysis kit (Biovision) according to manufacturer protocol. Reductive stress was detected using the Enzo nitroreductase hypoxia kit (Enzo Life Sciences, Ann Arbor Mich.) following manufacturer protocol and visualized by fluorescent microscopy; a set of non-docetaxel-treated control cells loaded with fluorescent probe were compared against docetaxel-treated cells to derive a % redox stress increase which was calculated as fluorescence intensity of nitroreductase probe per cell and expressed as increase from vehicle. Protein synthesis was measured by two means 1. L-azidohomoalanine amino acid analog of methionine containing an azide moiety was added to cultured cells (parent or DTC) for 3 hours which is incorporated into proteins during active protein synthesis. […]

[2] = system: CD44; test: Cell surface CD44 expression by FACS; settings: for CD44 expression after exogenous cytokine: MDA-MB-231, within 4 hours
Experimental: DU145 and DU145-TxR were provided by A. Mizokami^63 and cultured in DMEM containing 10% FBS, resistant line included 100 nM paclitaxel in the culture media. During treatments with chemotherapeutics, cells were grown to semi-confluence and treated with indicated concentrations of chemotherapy in serum-containing medium for indicated time points. When small molecule inhibitors were included in treatments, they were added simultaneously with chemotherapy. […] Scrambled siRNA was used as a control. For chemotherapy treatment experiments: Cancer cells were plated at a density of 0.5-1×10^5 cells/ml and allowed to adhere for 24-48 hr. […] Following washes with PBS, adherent cells were trypsinized and re-plated at a density of 1.5-2×10^5 cells/ml and cultured in serum-containing medium. […] A population of drug naïve parent cells were always cultured alongside DTC and fresh media was added at every interval that experimental population (DTC) received fresh media.
Cells were cultured as indicated, removed from culture dishes with accutase stem-pro dissociation reagent (Invitrogen, Carlsbad Calif.) and fixed with 4% paraformaldehyde in PBS for 30 min at RT, washed twice with PBS and blocked in 10% goat serum (v/v). Whenever necessary, cells were permeabilized with 0.05% saponin in PBS. Cells were incubated with CD44-APC (BD biosciences, San Jose, Calif.) overnight at 4 C and analyzed by FACS (C6 Accuri cyomteters Inc Ann Arbor, Mich.), data analysis using FlowJo software (Tree Star Inc., Ashland Oreg.) and Accuri cFlow plus software to obtain and confirm mean fluorescent intensity (GNU.org).

[3] = system: MDA-MB-231 parent or DTC; test: Cell viability (MTS) and trypan blue exclusion of parent or DTC treated with doxorubicin
Experimental: as §1
Following drug incubation, cells were washed and suspended in phenol red-free RPMI or DMEM and subsequently treated with MTS reagent using manufacturer protocol (Promega, Madison, Wis.). Trypan blue exclusion was used to validate experiments and evaluate % of dead cells performed by bright field microscopy.

[4] = system: DTC; test: Total intracellular reduced glutathione (GSH) in drug tolerant cells; settings: acute (3 hours) exposure; ML-265 10 μM, catalase 2000 U/ml
Experimental: In vitro detection of glucose uptake was performed using 2-(N-7-Nitrobenz-2-oxa-1,3-diazol-4-yl)Amino)-2-Deoxyglucose (2-NBDG) (Invitrogen, Carlsbad Calif.), dissolved in DMSO to 50 mM. Cells were pre-treated with kinase inhibitors or vehicle for 3 hours in glucose- and phenol red-free media before addition of 50 μM 2-NBDG and subsequently read by FACS ex/em 488/535 nm. ROS was determined by pre-loading cells with CM-DCFDA (1 μM), washed 2 times with PBS and subsequently treated with H2O2 or vehicle; when kinase inhibitors were included in treatment, cells were first incubated with inhibitor for 3 hours prior to CM-DCFDA loading. Fluorescence was then determined by FACS ex/em 488/535 nm. For the following assays, cells were trypsinized and counted by Nexcelom cell counter (Lawrence, Mass.) prior to being subjected to analysis in order to achieve a quantitative value per cell: Reduced glutathione was determined using a colorimetric glutathione recycling system by DTNB following manufacturer protocol (Biovision, Milpitas Calif.). […] Protein synthesis was measured by two means 1. […] Fluorescence was detected by FACS as described below. […] GFP protein translation was determined by fluorescent microscopy. […] Individual cells were evaluated for fluorescent intensity of caspase-3 activity (red signal intensity) and green fluorescent protein intensity. […]

Row | Molecule | 2-NBDG uptake after exogenously-added cytokines [1] | CD44 expression after exogenous cytokine [2] | other results
1 | CO[C@H]1C[C@@H]2CC[C@@H](C)[C@@](O)(O2)C(=O)C(=O)N2CCCC[C@H]2C(=O)O[C@H]([C@H](C)C[C@@H]2CC[C@@H](OCCO)[C@H](OC)C2)CC(=O)[C@H](C)/C=C(\C)[C@@H](O)[C@@H](OC)C(=O)[C@H](C)C[C@H](C)/C=C/C=C/C=C/1C [Everolimus, 40-O-(2-hydroxyethyl)-rapamycin] |  |  | suppression of glucose consumption (2-NBDG uptake) [1]: greater suppression of glucose consumption in the DTC subset compared to drug naïve parent cells
2 | Cc1ccc(S(=O)(=O)/C=C/C#N)cc1 [Bay-11] |  |  | chemotherapy early-induced CD44 expression ([2]; DTX 25 nM, 4 h, Bay-11 10 μM, neutralizing antibodies 2 μg/ml): modulated chemotherapy early-induced CD44 expression
3 | IL-8: recombinant cytokine purchased from Biolegend | didn't observe any alterations in 2-NBDG uptake |  | 
4 | IFN-γ: recombinant cytokine purchased from Biolegend | didn't observe any alterations in 2-NBDG uptake | able to independently drive CD44 expression in a dose-dependent manner | 
5 | Oc1cccc(-c2nc(N3CCOCC3)c3oc4ncccc4c3n2)c1 [PI103, 3-(4-(4-Morpholinyl)pyrido[3′,2′:4,5]furo[3,2-d]pyrimidin-2-yl)phenol] |  |  | response to dox in combination with inhibitor, DTC ([3]; DTC, co-incubated with dox, 48 h, PI103 5 μM, lonidamine 10 μM, KB-458 and KB-697 10 μM): exquisitely responsive, overtly driven to cell death by dox in combination; response to dox in combination with inhibitor, parent cells ([3]; drug naïve parent cells, co-incubated with dox, 48 h): little synergism or a reversion of synergy; suppression of glucose consumption (2-NBDG uptake) [1]: greater suppression of glucose consumption in the DTC subset compared to drug naïve parent cells
6 | COc1cccc2c1C(=O)c1c(O)c3c(c(O)c1C2=O)C[C@@](O)(C(=O)CO)C[C@@H]3O[C@H]1C[C@H](N)[C@H](O)[C@H](C)O1 [doxorubicin, (1S,3S)-3-Glycoloyl-3,5,12-trihydroxy-10-methoxy-6,11-dioxo-1,2,3,4,6,11-hexahydro-1-tetracenyl 3-amino-2,3,6-trideoxy-α-L-lyxo-hexopyranoside] |  |  | response of DTC to doxorubicin (trypan blue exclusion) ([3]; 72 h, DTC vs parent): DTC developed resistance; doxorubicin-mediated toxicity with PPP intermediates ([3]; drug naïve parent cells co-treated with exogenous NADPH, GSH or ectopic G6PD expression): reduction of doxorubicin-mediated toxicity
7 | Cn1c2cc([S+](C)[O-])sc2c2cnn(Cc3cccc(N)c3)c(=O)c21 (stereo not shown) [ML-265] |  |  | total levels of reduced glutathione (GSH) in DTC [4]: diminished total levels of reduced glutathione in DTC
8 | GM-CSF: recombinant cytokine purchased from Biolegend | didn't observe any alterations in 2-NBDG uptake | able to independently drive CD44 expression in a dose-dependent manner | 
9 | IL-6: recombinant cytokine purchased from Biolegend | didn't observe any alterations in 2-NBDG uptake |  | 
10 | B1 | didn't observe any alterations in 2-NBDG uptake | able to independently drive CD44 expression in a dose-dependent manner | 
